Source: patent US5767120A, “Tricyclic derivatives, compositions and methods of use” (Schering Corporation, priority 1995, dated 1998)

Key:
TNF-α = experiment: Inhibition of LPS-Induced TNF-α Production From the Murine Cell Line WEHI-265; type: cell-based; settings: Mus musculus, WEHI-265 cells, 20-24 hours
Procedure: This test procedure is a standard test used to determine anti-TNF-α activity and to evaluate the usefulness of said compounds for counteracting the biological effects of TNF-α.
1. In Vitro Study: Inhibition of LPS-Induced TNF-α Production From the Murine Cell Line WEHI-265
1) Cells (obtained from cell cultures containing ≤10^6 cells/ml) are suspended at 0.2×10^6 cells/ml in complete medium (RPMI1640, with 10% FCS, 10^-5 M 2-ME, 2 mM glutamine and 10 mM HEPES buffer) and plated in CoStar 24 well plates (1.0 ml/well).
2) Compounds are dissolved in the appropriate vehicle at 400 times the concentration to be tested, and 5 μl of compound is added to the wells.
3) LPS (from E. coli 0111:B4) is diluted to 6 μg/ml and 1.0 ml is added to wells.
4) Plates are incubated 20-24 hours in 37° CO02 incubator.
5) Supernatant fluids are collected and analyzed for TNF content as described in J. ImmunoL, 142:3884.

serum TNF = experiment: Inhibition of LPS-Induced Serum TNF; type: in vivo, Mice (C57BI/6J males); settings: Mus musculus, 1.5 h; 25 mg/kg orally or i.p. one hour before LPS (50 μg i.p.); serum 90 min after LPS; values may be subject to a wide margin of error
Procedure: In addition to the in vitro test described above, the following in vivo test was also performed on several of the compounds of the present invention.
2. In Vivo Study: Inhibition of LPS-Induced Serum TNF
1) Mice (C57BI/6J males, 6-8 weeks of age) are dosed with the indicated compound (dissolved in CMC suspension vehicle; compounds are given orally or i.p. one hour before LPS challenge).
3) Mice are bled 90 min after LPS challenge.
4) Sera are analyzed for TNF content by ELISA as described in J. Immunol.

[1] = Inhibition of LPS/Galactosaimine-Induced Lethality (septic shock); type: in vivo, Mice (C57BI/6J males); settings: 25 mg/kg orally or i.p. one hour before LPS (100 ng) and d-galactosamine (8 mg) i.p.; survival 24 hours after challenge
Procedure: This test procedure is a standard test used to determine activity against septic shock.
3. In Vivo Study: Inhibition of LPS/Galactosaimine-Induced Lethality
1) Mice (C57BI/6J males, 6-8 weeks of age) are dosed with the indicated compound (dissolved in CMC suspension vehicle; compounds are given orally or i.p. one hour before challenge with LPS and d-galactosamine).
2) Mice are challenged i.p. with a mixture of LPS (from E. coli 0111:B4; 100 ng) and d-galactosamine (8 mg).
3) Survival is determined 24 hours after challenge. See procedure published in J. Exp. Med. 165:657 (1987)

SMILES	inhibition at 10 µM (TNF-α) [%]	inhibition in vivo at 25 mg/kg (serum TNF) [%]	# dead/total at 25 mg/kg [1]
C=CCC1(CCN2CCN(C)CC2)c2ccccc2CCc2ccccc21 [IQ]	68	–	–
CCOCC1(CCN(C)C)c2ccccc2CCc2ccccc21 [IEE]	23	38	8/10
C=CCC1(CCN(C)C)c2ccccc2CCc2ccc(Cl)cc21 (centres unmarked) [IPP]	52	–	–
CCCC1(CCCN(C)C)c2ccccc2CCc2ccccc21 [Compound IG, 10,11-dihydro-N,N-dimethyl5-propyl-5H-dibenzo[a,d]cycloheptenep]	60	–	–
CCOCC1(CCNC)c2ccccc2CCc2ccccc21 [IBB]	45	34	10/10
CCOCC1(CN(C)C)c2ccccc2CCc2ccccc21 [IZ]	37	0	8/10
CCCC1(CCN(C)C)c2ccccc2CCc2ccccc21 [Compound IC, 10,11-dihydro-N,N-dimethyl-5-propyl-5H-dibenzo[a,d]cycloheptene-5-(2-ethanamine)]	60	65	1/9
CCCC1(CCNC)c2ccccc2CCc2ccccc21 [IDD]	59	31	9/10
C=CCC1(CCN(C)C)c2ccccc2COc2ccccc21 (centres unmarked) [IMM]	70	32	0/10
C=CCC1(CCN2CCCC2C(=O)O)c2ccccc2CCc2ccccc21 (centres unmarked) [Compound IVV, 1-[2-[10,11-dihydro-5-(2propenyl)-5H-dibenzo[a,d]cyclohepten-5-yl]ethyl]-2-pyrrolidinecarboxylic acid]	14	–	–
CCOCC1(CNC(C)=O)c2ccccc2CCc2ccccc21 [IY]	17	–	–
CCOC1(CCN(C)CC(=O)O)c2ccccc2CCc2ccccc21 [IKK]	13	–	–
CCOC(=O)N(C)CCC1(OCC)c2ccccc2CCc2ccccc21 [Compound IV]	34	–	–
C=CCC1(CCNC)c2ccccc2CCc2ccccc21 [IAA]	56	38	5/10
CCOC1(CCN(C)CCOCCO)c2ccccc2CCc2ccccc21 [IJJ]	53	–	–
CCCC1(CN(C)C)c2ccccc2CCc2ccccc21 [Compound ISS, 10,11-dihydro-N,N-dimethyl-5-propyl-5H-dibenzo[a,d]cyclohepten-5-methanamine]	67	–	–
CCOC1(CCN(C)C)c2ccccc2CCc2ccccc21 [Compound IA, 5-ethoxy-5-dimethylaminoethyl-10,11-dihydro-5H-dibenzo[a,d]cycloheptene]	51	69	0/8
ON=CCC1(CC2CC2)c2ccccc2CCc2ccccc21 [IRR]	48	38	–
CCOC1(CCN2Cc3ccccc3C2)c2ccccc2CCc2ccccc21 [Compound IL, 2-[2-[5-ethoxy-10,11-dihyd]	53	–	–
CN(C)CCC1(CC2CC2)c2ccccc2CCc2ccccc21 [IF]	68	34	–
CCOC1(CCNC)c2ccccc2CCc2ccccc21 [IK]	60	40	0/9
CCOC1(CCN2CCCC2)c2ccccc2COc2ccccc21 (centres unmarked) [Compound IM, 1-[2-(11-ethoxy-6,11-dihydrodibenz[b,e]oxepin-11-yl)ethyl]pyrrolidine]	54	58	1/8
CCCC1(CCN2CCCC2)c2ccccc2CCc2ccccc21 [IP]	44	52	9/9
